According to ChEMBL document CHEMBL4476872, “Inhibitors of cellular metabolic processes” (2018):

Target: S-adenosylmethionine synthase isoform type-2 (Homo sapiens, UniProt P31153)
Experiment: Inhibition of recombinant His6-tagged MAT2A (unknown origin) expressed in SF9 insect cells using L-Met as substrate preincubated for 60 mins followed by substrate and ATP addition and measured after 60 mins by spectrophotometric analysis

S-adenosylmethionine synthase isoform type-2, sequence (P31153 whole entry, canonical isoform): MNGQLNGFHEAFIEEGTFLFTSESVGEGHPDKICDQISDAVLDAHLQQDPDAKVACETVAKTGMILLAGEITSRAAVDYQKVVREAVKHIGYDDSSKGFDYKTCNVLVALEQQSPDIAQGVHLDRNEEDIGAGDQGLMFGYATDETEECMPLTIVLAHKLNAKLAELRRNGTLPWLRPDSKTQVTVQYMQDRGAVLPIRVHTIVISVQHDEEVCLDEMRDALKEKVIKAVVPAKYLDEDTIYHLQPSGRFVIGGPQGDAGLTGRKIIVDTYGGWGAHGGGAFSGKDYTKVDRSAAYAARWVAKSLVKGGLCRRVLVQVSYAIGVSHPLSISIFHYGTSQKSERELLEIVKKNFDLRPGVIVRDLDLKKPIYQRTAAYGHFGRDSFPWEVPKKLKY

IC50 | Structure (SMILES)
100 to 1000 nM | Cc1[nH]c2c(N3CCCCC3)c(-c3ccccc3)nn2c(=O)c1-c1ccccc1
< 100 nM | COC(=O)Cc1nc2ccc(-c3c(C)[nH]c4c(-c5ccccc5)c(-c5ccccc5)nn4c3=O)cc2s1
100 to 1000 nM | Cc1[nH]c2c(-c3ccccc3)c(-c3ccccc3)nn2c(=O)c1-c1ccc(OCC(=O)N(C)C)cc1
100 to 1000 nM | COc1ccc(-c2c(CC#N)[nH]c3c(-c4ccccc4)c(-c4ccccc4)nn3c2=O)cc1
